# Experimental data published in patent US9451775B2, “Heterocyclic compounds as pesticides” (Bayer Intellectual Property GmbH, priority 2008, dated 2016).
# Tested on: green peach aphid (Myzus persicae)
# Assay: Myzus test (spray treatment)
# Assay type: in vivo
# Conditions: foliar, application rate of 500 g/ha, sprayed Chinese cabbage leaf discs, read-out: activity (effect in %, aphids killed)
# Description: Myzus Test (Spray Treatment)
# • Solvents: 78.0 parts by weight of acetone • 1.5 parts by weight of dimethylformamide • Emulsifier: 0.5 part by weight of alkylaryl polyglycol ether
# To produce a suitable preparation of active compound, 1 part by weight of active compound is mixed with the stated amounts of solvents and emulsifier, and the concentrate is diluted with emulsifier-containing water to the desired concentration.
# Discs of leaves of Chinese cabbage (Brassica pekinensis) which are heavily infested by all stages of the green peach aphid (Myzus persicae) are sprayed with an active compound preparation of the desired concentration.
# After the desired period of time, the effect in % is determined. 100% means that all aphids have been killed; 0% means that none of the aphids have been killed.
row,Structure (SMILES),pest or weed control at 500 g/ha
1,Cc1nc(-c2cccnc2)sc1-c1nc(-c2cc3ccccc3cn2)no1 [compound 72],≥ 80%
2,Cc1nc(-c2cccnc2)sc1-c1nc(-c2nc(C)c(C)c(C)n2)no1 [compound 73],≥ 80%
3,COc1cc(OC)nc(-c2noc(-c3sc(-c4cccnc4)nc3C)n2)n1 [compound 74],≥ 80%
4,Cc1nc(-c2cccnc2)sc1-c1nc(C(F)(F)F)co1 [compound 75],≥ 80%
5,Cc1nc(-c2cccnc2)sc1-c1ccn(-c2nnc(C(C)C)s2)n1 [compound 76],≥ 80%
6,Cc1nc(-c2cccnc2)sc1-c1ccn(-c2ncccc2[N+](=O)[O-])n1 [compound 77],≥ 80%
7,Cc1nc(-c2cccnc2)sc1-c1ccn(-c2cnc(C(F)(F)F)nc2)n1 [compound 78],≥ 80%
8,CCOc1cc(OCC)nc(-n2ccc(-c3sc(-c4cccnc4)nc3C)n2)n1 [compound 79],≥ 80%
9,Cc1nc(-c2cccnc2)sc1-c1ccn(-c2nnc(C(F)(F)F)n2C)n1 [compound 80],≥ 80%
10,COc1cc(OC)nc(-n2ccc(-c3sc(-c4cccnc4)nc3C)n2)n1 [compound 81],≥ 80%
11,Cc1nc(-c2cccnc2)sc1-c1ccn(-c2cnccc2F)n1 [compound 82],≥ 80%
12,Cc1nc(-c2cccnc2)sc1-c1ccn(-c2nnc(C(C)(C)C)s2)n1 [compound 83],≥ 80%
13,CCc1nnc(-n2ccc(-c3sc(-c4cccnc4)nc3C)n2)s1 [compound 84],≥ 80%
14,Cc1nc(-c2cccnc2)sc1-c1ccn(-c2nnc(C(F)F)s2)n1 [compound 85],≥ 80%
15,Cc1nc(-c2cccnc2)sc1-c1ccn(-c2nnc(C3CC3)s2)n1 [compound 86],≥ 80%
16,Cc1nc(-c2cccnc2)sc1-c1ccn(-c2nc(Cl)cs2)n1 [compound 87],≥ 80%

row,Structure (SMILES),pest or weed control at 500 g/ha
1,c1cnc(-c2nccc(-c3cnc(-c4cccnc4)s3)n2)nc1 [compound 88],≥ 80%
2,c1cnc(-n2ccc(-c3cnc(-c4cccnc4)s3)n2)nc1 [compound 89],≥ 80%
3,Cc1nc(-c2cccnc2)sc1-c1ccncn1 [compound 90],≥ 80%
4,Cc1nc(-c2cccnc2)sc1-c1nc(-c2nnc(C(F)(F)F)n2C)no1 [compound 91],≥ 80%
5,Cc1nc(-c2cccnc2)sc1-c1ccn(-c2cccc(Cl)n2)n1 [compound 92],≥ 80%
6,Cc1nc(-c2cccnc2)sc1-c1nc(N)nc(C(C)F)n1 (centres unmarked) [compound 93],≥ 80%
7,Cc1nc(-c2cccnc2)sc1-c1nccc(C(F)(F)F)n1 [compound 94],≥ 80%
8,COC(=O)c1cccc(-c2sc(-c3cccnc3)nc2C)n1 [compound 95],≥ 80%
9,Cc1nc(-c2cccnc2)sc1-c1cccc(N2CCOCC2)n1 [compound 96],≥ 80%
10,Cc1nc(-c2cccnc2)sc1-c1cccc(-n2cccn2)n1 [compound 97],≥ 80%
11,Cc1nc(-c2cccnc2)sc1-c1cccc(N2CC(C)OC(C)C2)n1 (centres unmarked) [compound 98],≥ 80%
12,Cc1nc(-c2cccnc2)sc1-c1ccc(C(F)(F)F)cn1 [compound 99],≥ 80%
13,COC(=O)c1oc(-c2sc(-c3cccnc3)nc2C)nc1C [compound 100],≥ 80%
14,Cc1nc(-c2cccnc2)sc1-c1cccc(C2=NOCCO2)c1 [compound 101],≥ 80%
15,Cc1nc(-c2cccnc2)sc1-c1nnc(C(F)(F)F)s1 [compound 102],≥ 80%

# Tested on: not listed separately
# Assay: logP determination by HPLC (formic acid method)
# Assay type: physicochemical
# Conditions: reversed-phase HPLC column (C18), pH 3.4, HPLC on reversed-phase column (C18), acidic range (pH 3.4), 55° C.; read-out: logP (HCOOH)
# Outline: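 Reversed-phase C18 HPLC at 55 °C, pH 3.4, with a 4.25 min gradient from 10% to 95% acetonitrile (formic acid-modified water/acetonitrile phases). logP was derived from retention time by linear interpolation between unbranched alkan-2-ones (C3-C16) of known logP.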
row,Structure (SMILES),chromatographic logP
1,Cc1nc(-c2cccnc2)sc1-c1nc(-c2cc3ccccc3cn2)no1 [compound 72],3.11
2,Cc1nc(-c2cccnc2)sc1-c1nc(-c2nc(C)c(C)c(C)n2)no1 [compound 73],2.34
3,COc1cc(OC)nc(-c2noc(-c3sc(-c4cccnc4)nc3C)n2)n1 [compound 74],2.81
4,Cc1nc(-c2cccnc2)sc1-c1nc(C(F)(F)F)co1 [compound 75],2.97
5,Cc1nc(-c2cccnc2)sc1-c1ccn(-c2nnc(C(C)C)s2)n1 [compound 76],3.11
6,Cc1nc(-c2cccnc2)sc1-c1ccn(-c2ncccc2[N+](=O)[O-])n1 [compound 77],2.5
7,Cc1nc(-c2cccnc2)sc1-c1ccn(-c2cnc(C(F)(F)F)nc2)n1 [compound 78],2.99
8,CCOc1cc(OCC)nc(-n2ccc(-c3sc(-c4cccnc4)nc3C)n2)n1 [compound 79],3.94
9,Cc1nc(-c2cccnc2)sc1-c1ccn(-c2nnc(C(F)(F)F)n2C)n1 [compound 80],2.27
10,COc1cc(OC)nc(-n2ccc(-c3sc(-c4cccnc4)nc3C)n2)n1 [compound 81],2.8
11,Cc1nc(-c2cccnc2)sc1-c1ccn(-c2cnccc2F)n1 [compound 82],2.23
12,Cc1nc(-c2cccnc2)sc1-c1ccn(-c2nnc(C(C)(C)C)s2)n1 [compound 83],3.63
13,CCc1nnc(-n2ccc(-c3sc(-c4cccnc4)nc3C)n2)s1 [compound 84],2.61
14,Cc1nc(-c2cccnc2)sc1-c1ccn(-c2nnc(C(F)F)s2)n1 [compound 85],2.8
15,Cc1nc(-c2cccnc2)sc1-c1ccn(-c2nnc(C3CC3)s2)n1 [compound 86],2.72
16,Cc1nc(-c2cccnc2)sc1-c1ccn(-c2nc(Cl)cs2)n1 [compound 87],3.47

row,Structure (SMILES),chromatographic logP
1,c1cnc(-c2nccc(-c3cnc(-c4cccnc4)s3)n2)nc1 [compound 88],1.05
2,c1cnc(-n2ccc(-c3cnc(-c4cccnc4)s3)n2)nc1 [compound 89],1.48
3,Cc1nc(-c2cccnc2)sc1-c1ccncn1 [compound 90],1.39
4,Cc1nc(-c2cccnc2)sc1-c1nc(-c2nnc(C(F)(F)F)n2C)no1 [compound 91],2.41
5,Cc1nc(-c2cccnc2)sc1-c1ccn(-c2cccc(Cl)n2)n1 [compound 92],3.84
6,Cc1nc(-c2cccnc2)sc1-c1nc(N)nc(C(C)F)n1 (centres unmarked) [compound 93],1.86
7,Cc1nc(-c2cccnc2)sc1-c1nccc(C(F)(F)F)n1 [compound 94],3.14
8,COC(=O)c1cccc(-c2sc(-c3cccnc3)nc2C)n1 [compound 95],2.03
9,Cc1nc(-c2cccnc2)sc1-c1cccc(N2CCOCC2)n1 [compound 96],2.58
10,Cc1nc(-c2cccnc2)sc1-c1cccc(-n2cccn2)n1 [compound 97],2.93
11,Cc1nc(-c2cccnc2)sc1-c1cccc(N2CC(C)OC(C)C2)n1 (centres unmarked) [compound 98],3.55
12,Cc1nc(-c2cccnc2)sc1-c1ccc(C(F)(F)F)cn1 [compound 99],3.14
13,COC(=O)c1oc(-c2sc(-c3cccnc3)nc2C)nc1C [compound 100],2.55
14,Cc1nc(-c2cccnc2)sc1-c1cccc(C2=NOCCO2)c1 [compound 101],2.42
15,Cc1nc(-c2cccnc2)sc1-c1nnc(C(F)(F)F)s1 [compound 102],2.85
